# Assay type: physicochemical
# Details: HPLC on reversed phase columns, method [a]: pH 2.7, 0.1% formic acid in water / acetonitrile, linear gradient 10% to 95% acetonitrile
row,Compound,log P
1,CC(C)NC(=O)C1(C)ON=C(c2ccc3ncc(Br)cc3c2)C1C (stereo not drawn) [compound 274],3.04[a]
2,C#Cc1cnc2ccc(C3=NOC(C)(C(=O)NC(C)(C)C(C)C)C3)cc2c1 (stereo not drawn) [compound 320],3.71[a]
3,C#Cc1cnc2ccc(C3=NOC(C)(C(=O)NC(CN(C)c4ccccc4)C4CC4)C3)cc2c1 (stereo not drawn) [compound 359],3.69[a]
4,CC(C)NC(=O)C12CCCCC1C(c1ccc3ncc(Br)cc3c1)=NO2 (stereo not drawn) [compound 272],3.55[a]
5,C#Cc1cnc2ccc(C3=NOC(C(=O)NC(C)C)(C(F)F)C3)cc2c1 (stereo not drawn) [compound 616],2.73[a]
6,C#Cc1cnc2ccc(C3=NOC(C)(C(=O)NCCF)C3)cc2c1 (stereo not drawn) [compound 640],2.05[a]
7,C#Cc1cnc2c(Cl)cc(C3=NOC(OC)(C(=O)NC(C)C)C3)cc2c1 (stereo not drawn) [compound 590],2.84[a]
8,C#Cc1cnc2c(C)cc(C3=NOC(OC)(C(=O)NCc4cn(CCC)nc4C)C3)cc2c1 (stereo not drawn) [compound 610],2.90[a]
9,COC1(C(=O)NC2CCC2)CC(c2cc(C)c3ncc(Br)cc3c2)=NO1 (stereo not drawn) [compound 603],3.58[a]
10,CCn1cc(CNC(=O)C2(OC)CC(c3cc(C)c4ncc(Br)cc4c3)=NO2)c(C)n1 (stereo not drawn) [compound 600],2.96[a]
11,CCn1cc(CNC(=O)C2(C)CC(c3cc(C)c4ncc(Br)cc4c3)=NO2)c(C)n1 (stereo not drawn) [compound 580],2.96[a]
12,CC1(C(=O)NC2CC2)CC(c2ccc3ncc(Br)cc3c2)=NO1 (stereo not drawn) [compound 317],2.40[a]
13,C#Cc1cnc2ccc(C3=NOC(C)(C(=O)NC(C)CC(C)C)C3)cc2c1 (stereo not drawn) [compound 316],3.37[a]
14,CC(O)C1(C(=O)NC2CCC2)CC(c2ccc3ncc(Br)cc3c2)=NO1 (stereo not drawn) [compound 563],2.41[a]
15,C#Cc1cnc2ccc(C3=NOC(C)(C(=O)NCc4cn(CCCC)nc4C)C3)cc2c1 (stereo not drawn) [compound 656],2.64[a]
16,CC1(C(=O)NC2COC2)CC(c2ccc3ncc(Br)cc3c2)=NO1 (stereo not drawn) [compound 235],1.99^[a]
17,CC1(C(=O)NC(c2cccc(Cl)c2)C(F)(F)F)CC(c2ccc3ncc(Br)cc3c2)=NO1 (stereo not drawn) [compound 360],4.39[a]

# Second part, the molecule after the results:
row,log P,Compound
1,4.21[a],CC(C)CCC(C)NC(=O)C1(C)CC(c2ccc3ncc(Br)cc3c2)=NO1 (stereo not drawn) [compound 328]
2,2.69[a],CC(C)NC(=O)C1(F)CC(c2ccc3ncc(Br)cc3c2)=NO1 (stereo not drawn) [compound 280]
3,3.58[a],C#Cc1cnc2ccc(C3=NOC(C)(C(=O)NC(COc4ccc(F)cc4)C4CC4)C3)cc2c1 (stereo not drawn) [compound 318]
4,2.41[a],C#CC1(C(=O)NCc2cnc(C)cn2)CC(c2ccc3ncc(Br)cc3c2)=NO1 (stereo not drawn) [compound 628]
5,1.34[a],C#Cc1cnc2ccc(C3=NOC(C)(C(=O)NCc4cc(OC)ccn4)C3)cc2c1 (stereo not drawn) [compound 677]
6,1.98^[a],C#CCOc1coc(CNC(=O)C2(C)CC(c3ccc4ncc(C#C)cc4c3)=NO2)cc1=O (stereo not drawn) [compound 233]
7,2.56[a],Cc1csc(CNC(=O)C2(C)CC(c3ccc4ncc(Br)cc4c3)=NO2)n1 (stereo not drawn) [compound 649]
8,4.06^[a],CC1(C(=O)NCC#Cc2ccc(Cl)cc2)CC(c2ccc3ncc(Br)cc3c2)=NO1 (stereo not drawn) [compound 248]
9,4.19[a],CC(C)C(C)(C)NC(=O)C1(C)CC(c2ccc3ncc(Br)cc3c2)=NO1 (stereo not drawn) [compound 325]
10,1.23[a],CN(C)CCCNC(=O)C1(C)CC(c2ccc3ncc(Br)cc3c2)=NO1 (stereo not drawn) [compound 297]
11,3.61[a],C=C(C)C1(C(=O)NC2CCC2)CC(c2ccc3ncc(Br)cc3c2)=NO1 (stereo not drawn) [compound 521]
12,2.37[a],C#Cc1cnc2c(Cl)cc(C3=NOC(OC)(C(=O)NCc4cnc(C)cn4)C3)cc2c1 (stereo not drawn) [compound 591]
13,2.23[a],CC(C)NC(=O)C1(C(C)O)CC(c2ccc3ncc(Br)cc3c2)=NO1 (stereo not drawn) [compound 552]
14,2.57[a],CCn1cc(CNC(=O)C2(C)CC(c3ccc4nc(C#N)c(Br)cc4c3)=NO2)c(C)n1 (stereo not drawn) [compound 302]

# Same assay, conditions: HPLC on reversed phase columns, method [a]: pH 2.7, 0.1% formic acid in water and acetonitrile, linear gradient 10% to 95% acetonitrile
row,Compound,log P
1,CC1(C(=O)NCc2cc(C#N)ccn2)CC(c2ccc3ncc(Br)cc3c2)=NO1 (stereo not drawn) [compound 748],2.48[a]
2,CCC(C)Oc1cc(CNC(=O)C2(C)CC(c3ccc4ncc(Br)cc4c3)=NO2)ccn1 (stereo not drawn) [compound 759],3.48[a]
3,CC1(C(=O)NCCc2ccc(C(F)(F)F)cc2Cl)CC(c2ccc3ncc(Br)cc3c2)=NO1 (stereo not drawn) [compound 769],4.21[a]
4,CC1(C(=O)NCCC2CCCO2)CC(c2ccc3ncc(Br)cc3c2)=NO1 (stereo not drawn) [compound 713],2.39[a]
5,CC(NNC(=O)C1(C)CC(c2ccc3ncc(Br)cc3c2)=NO1)C1CC1 (stereo not drawn) [compound 767],2.51[a]
6,C#Cc1cnc2ccc(C3=NOC(C)(C(=O)NCc4ccnc(C(F)(F)F)c4)C3)cc2c1 (stereo not drawn) [compound 762],2.64[a]
7,C#Cc1cnc2ccc(C3=NOC(C)(C(=O)NCc4cccnc4OCC)C3)cc2c1 (stereo not drawn) [compound 785],2.84[a]
8,C#Cc1cnc2ccc(C3=NOC(C)(C(=O)NCc4cnc(Cl)cn4)C3)cc2c1 (stereo not drawn) [compound 787],2.43[a]
9,COc1ncc(CNC(=O)C2(C)CC(c3ccc4ncc(Br)cc4c3)=NO2)cn1 (stereo not drawn) [compound 688],2.25[a]
10,CC(C)(C)Sc1cc(CNC(=O)C2(C)CC(c3ccc4ncc(Br)cc4c3)=NO2)ccn1 (stereo not drawn) [compound 797],3.44[a]
11,COc1cncc(CNC(=O)C2(C)CC(c3ccc4ncc(Br)cc4c3)=NO2)n1 (stereo not drawn) [compound 794],2.53[a]
12,C#Cc1cnc2ccc(C3=NOC(C)(C(=O)NCc4ccc(O)nc4)C3)cc2c1 (stereo not drawn) [compound 806],1.54[a]
13,C#Cc1cnc2ccc(C3=NOC(OC)(C(=O)NCCC4CC4)C3)cc2c1 (stereo not drawn) [compound 719],2.78[a]
14,C#Cc1cnc2ccc(C3=NOC(C)(C(=O)N(Cc4cc(F)cc5c4C(C)(C)CCC5)C4CC4)C3)cc2c1 (racemic) [compound 816],5.54[a]

# The next lines start with the values.
row,log P,Compound
1,2.01[a],C#Cc1cnc2ccc(C3=NOC(C)(C(=O)NCc4cnc(OC)nc4)C3)cc2c1 (stereo not drawn) [compound 689]
2,2.51[a],CCn1cc(CNC(=O)C2(C#N)CC(c3ccc4ncc(Br)cc4c3)=NO2)c(C)n1 (stereo not drawn) [compound 709]
3,2.04[a],C/C(=N\O)NC(=O)C1(C)CC(c2ccc3ncc(Br)cc3c2)=NO1 (stereo not drawn) [compound 723]
4,2.50[a],CC(C)/C(=N\O)NC(=O)C1(C)CC(c2ccc3ncc(Br)cc3c2)=NO1 (stereo not drawn) [compound 738]
5,1.67[a],COC1(C(=O)NC2CCN(C)CC2)CC(c2ccc3ncc(I)cc3c2)=NO1 (stereo not drawn) [compound 702]
6,1.74[a],C#Cc1cnc2ccc(C3=NOC(C)(C(=O)NCc4cncnc4)C3)cc2c1 (stereo not drawn) [compound 697]

# Same assay, conditions: method [a]: HPLC/LC-MS on reversed phase at pH 2.7, 0.1% formic acid in water / acetonitrile, gradient 10% to 95% acetonitrile
row,Compound,log P
1,COC(=O)CC1(C(=O)NC(C)C)CC(c2ccc3ncc(Br)cc3c2)=NO1 (racemic) [compound 387],2.66[a]
2,CCn1cc(CNC(=S)C2(OC)CC(c3ccc4ncc(Br)cc4c3)=NO2)c(C)n1 (stereo not drawn) [compound 478],3.15[a]
3,CCn1cc(CNC(=O)C2(C)ON=C(c3ccc4ncc(Br)cc4c3)C2OC)c(C)n1 (mixture of isomers) [compound 433],2.44[a]
4,C#Cc1cc2cc(C3=NOC(C)(C(=O)NC(C)C)C3)ccc2nc1C#N (stereo not drawn) [compound 404],2.77[a]
5,COc1nc2ccc(C3=NOC(C)(C(=O)NC(C)C)C3)cc2cc1I (stereo not drawn) [compound 485],3.72[a]

# Further lines, results first:
row,log P,Compound
1,4.29[a],CC1CCCC(C)C1NC(=O)C1(C)CC(c2ccc3ncc(Br)cc3c2)=NO1 (racemic) [compound 372]
2,2.99[a],CCC1(C(=O)NCC2COC(C)(C)O2)CC(c2ccc3ncc(Br)cc3c2)=NO1 (stereo not drawn) [compound 499]
3,2.28[a],Cc1ncsc1CNC(=O)C1(C)CC(c2ccc3ncc(Br)cc3c2)=NO1 (stereo not drawn) [compound 487]

# Same assay, conditions: method [a]: HPLC/LC-MS on reversed phase at pH 2.7, 0.1% formic acid in water / acetonitrile, linear gradient 10% to 95% acetonitrile
row,Compound,log P
1,CC(C)NC(=O)C1(CBr)CC(c2ccc3ncc(Br)cc3c2)=NO1 (stereo not drawn) [compound 81],3.04^[a]
2,CC(C)C1(C(=O)NC2CC2)CC(c2ccc3ncc(Br)cc3c2)=NO1 (stereo not drawn) [compound 65],3.11^[a]
3,CC(C)NC(=O)C1(C)CC(c2ccc3ncc([S+](C)[O-])cc3c2)=NO1 (stereo not drawn) [compound 77],1.49^[a]
4,CC(C)NC(=O)C1(C(C)C)CC(c2ccc3ncc(Br)cc3c2)=NO1 (stereo not drawn) [compound 62],3.51^[a]
5,CCn1cc(CNC(=O)C2(C)CC(c3ccc4ncc([S+](C)[O-])cc4c3)=NO2)c(C)n1 (stereo not drawn) [compound 145],1.34^[a]
6,CCn1cc(CNC(=O)C2(C)CC(c3ccc4ncc(S(C)(=O)=O)cc4c3)=NO2)c(C)n1 (stereo not drawn) [compound 151],1.6^[a]
7,CC1(C(=O)NCc2ccccc2Cl)CC(c2ccc3ncc(Br)cc3c2)=NO1 (stereo not drawn) [compound 93],3.61^[a]
8,C#Cc1cnc2ccc(C3=NOC(C)(C(=O)NCCc4ccc(Cl)cc4)C3)cc2c1 (stereo not drawn) [compound 210],3.25^[a]
9,C#Cc1cnc2ccc(C3=NOC(C)(C(=O)NCC#Cc4ccc(Cl)cc4)C3)cc2c1 (stereo not drawn) [compound 229],3.65^[a]
10,C#Cc1cnc2ccc(C3=NOC(C)(C(=O)NCc4nncn4CC)C3)cc2c1 (stereo not drawn) [compound 159],1.54^[a]

# Further lines, results first:
row,log P,Compound
1,2.75^[a],CC1(C(=O)NCc2ccc3ccccc3n2)CC(c2ccc3ncc(Br)cc3c2)=NO1 (stereo not drawn) [compound 165]
2,3.5^[a],CC1(C(=O)NCC2CCCOC2c2ccccc2)CC(c2ccc3ncc(Br)cc3c2)=NO1 (stereo not drawn) [compound 113]
3,1.98^[a],C#Cc1cnc2ccc(C3=NOC(C)(C(=O)NC4CCCCNC4=O)C3)cc2c1 (stereo not drawn) [compound 230]
4,3.48^[a],C#Cc1cnc2ccc(C3=NOC(C)(C(=O)NC4(C#C)CCCCC4)C3)cc2c1 (stereo not drawn) [compound 218]
5,3.15^[a],Cc1ccc(CNC(=O)C2(C)CC(c3ccc4ncc(Br)cc4c3)=NO2)o1 (stereo not drawn) [compound 90]

# Same assay, conditions: reversed phase HPLC column; HPLC reversed phase, pH 2.7, 0.1% formic acid in water / acetonitrile, linear gradient 10% to 95% acetonitrile; calibration with alkan-2-ones; read-out: log P (HCOOH)
row,chromatographic logP,Compound
1,2.59,CCn1cc(CNC(=O)C23OCCCC2C(c2ccc4ncc(Br)cc4c2)=NO3)c(C)n1 (stereo not drawn) [Compound No. 266]

# — patent US9510598B2, “Nitrogen-containing heterocyclic compounds for plant disease control” (BAYER CROPSCIENCE AG, priority 2012, dated 2016)
